Measurements reported in patent US20150261911A1, “CRYSTAL STRUCTURE” (Heptares Therapeutics Limited, priority 2014, published 2015).
Substitutions are numbered along the chain they refer to. Names and notes keep the numbering of the source. “Also recorded” adds a separate entry of the source.

T1: CRF1R L280A(5.47) (Homo sapiens, UniProt P34998, L280A)
T1 construct: expressed in transfected cells; host or cells: HEK293T, transient; whole cells solubilised in DDM
T1 sequence (P34998 with tags, fused parts or gaps L280A): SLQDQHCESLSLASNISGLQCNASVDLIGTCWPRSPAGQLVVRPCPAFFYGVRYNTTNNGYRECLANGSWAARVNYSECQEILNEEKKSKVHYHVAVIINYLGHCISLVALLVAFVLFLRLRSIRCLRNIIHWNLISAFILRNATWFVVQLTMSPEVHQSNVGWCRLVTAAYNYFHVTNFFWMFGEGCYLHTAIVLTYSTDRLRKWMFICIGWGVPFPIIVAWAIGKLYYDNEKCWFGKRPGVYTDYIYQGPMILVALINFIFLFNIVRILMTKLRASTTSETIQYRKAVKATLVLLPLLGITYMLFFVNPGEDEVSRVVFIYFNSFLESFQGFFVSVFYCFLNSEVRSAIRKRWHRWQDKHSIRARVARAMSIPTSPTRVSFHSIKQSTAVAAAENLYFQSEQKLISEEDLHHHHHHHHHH

T2: CRF1R F203A(3.44) (Homo sapiens, UniProt P34998, F203A)
T2 construct: expressed in transfected cells; host or cells: HEK293T, transient; whole cells solubilised in DDM
T2 sequence (P34998 with tags, fused parts or gaps F203A): T1 sequence (P34998 with tags, fused parts or gaps L280A) with F180A, A257L

T3: CRF1R Q355A(7.49) (Homo sapiens, UniProt P34998, Q355A)
T3 construct: expressed in transfected cells; host or cells: HEK293T, transient; whole cells solubilised in DDM
T3 sequence (P34998 with tags, fused parts or gaps Q355A): T1 sequence (P34998 with tags, fused parts or gaps L280A) with A257L, Q332A

T4: CRF1R N283A(5.50) (Homo sapiens, UniProt P34998, N283A)
T4 construct: expressed in transfected cells; host or cells: HEK293T, transient; whole cells solubilised in DDM
T4 sequence (P34998 with tags, fused parts or gaps N283A): T1 sequence (P34998 with tags, fused parts or gaps L280A) with A257L, N260A

B1: CRF1R StaR: thermostabilized CRF1R with 12 mutations: V120A, L144A, W156A, S160A, S222A, K228A, F260A, I277A, Y309A, F330A, S349A, Y363A (protein)
chain: MGGHPQLRLVKALLLLGLNPVSASLQDQHCESLSLASNISGLQCNASVDLIGTCWPRSPAGQLVVRPCPAFFYGVRYNTTNNGYRECLANGSWAARVNYSECQEILNEEKKSKVHYHVAAIINYLGHCISLVALLVAFVLFLRARSIRCLRNIIHANLIAAFILRNATWFVVQLTMSPEVHQSNVGWCRLVTAAYNYFHVTNFFWMFGEGCYLHTAIVLTYATDRLRAWMFICIGWGVPFPIIVAWAIGKLYYDNEKCWAGKRPGVYTDYIYQGPMALVLLINFIFLFNIVRILMTKLRASTTSETIQARKAVKATLVLLPLLGITYMLAFVNPGEDEVSRVVFIYFNAFLESFQGFFVSVFACFLNSEVRSAIRKRWHRWQDKHSIRARVARAMSIPTSPTRVSFHSIKQSTAVAAAENLYFQSEQKLISEEDLHHHHHHHHHH
modifications: C-terminal tag
B2: CRF1R wild type: wild-type human corticotropin-releasing factor receptor 1 (FIG. 12, SEQ ID NO:18) (protein)
chain: MGGHPQLRLVKALLLLGLNPVSASLQDQHCESLSLASNISGLQCNASVDLIGTCWPRSPAGQLVVRPCPAFFYGVRYNTTNNGYRECLANGSWAARVNYSECQEILNEEKKSKVHYHVAVIINYLGHCISLVALLVAFVLFLRLRSIRCLRNIIHWNLISAFILRNATWFVVQLTMSPEVHQSNVGWCRLVTAAYNYFHVTNFFWMFGEGCYLHTAIVLTYSTDRLRKWMFICIGWGVPFPIIVAWAIGKLYYDNEKCWFGKRPGVYTDYIYQGPMILVLLINFIFLFNIVRILMTKLRASTTSETIQYRKAVKATLVLLPLLGITYMLFFVNPGEDEVSRVVFIYFNSFLESFQGFFVSVFYCFLNSEVRSAIRKRWHRWQDKHSIRARVARAMSIPTSPTRVSFHSIKQSTAVAAAENLYFQSEQKLISEEDLHHHHHHHHHH

Experiments:
CRF1R L280A(5.47) = target: T1, CRF1R L280A(5.47); assay: Solubilised whole cell ligand binding, alanine mutagenesis; conditions: Leu280^5.47Ala
Procedure: (§1) HEK293T cells transiently transfected with CRF1R constructs were incubated in buffer (50mMTris-HCl pH 7.5, 150mMNaCl, EDTA-free protease inhibitors) with 30 nM [^3H]CP-376395, and 120 nM cold CP-376395 (Tocris) for 18 hours at room temperature. Reactions were transferred to ice and all subsequent steps performed at 4° C. Cells were solubilized in 1% (w/v) n-dodecyl-β-D-maltopyranoside (DDM, Affymetrix) for 1 hour and crude lysates cleared by centrifugation at 16.000×g for 15 minutes. Thermostability of the receptor was measured by incubation at varying temperatures for 30 minutes followed by separation of excess and unbound radioligand by gel filtration. Levels of ligand-bound receptor were then determined using a liquid scintillation counter.
(§2) For saturation binding experiments, membranes isolated from HEK293T cells transiently expressing wild-type CRF1R (15 μg/well), CRF1R StaR (6 μg/well), CRF1R StaR with T4L fusion (20 μg/well), and CRF1R-#105 (20 μg/well) were incubated in buffer (50mMTris-HCl pH 7.5, 150 mM NaCl, 0.1% (w/v) PEI, EDTA-free protease inhibitors) with [^3H]CP-376395 (0-60 nM) in the presence or absence of 30 uM cold CP-376395 in a final volume of 500 μl. Final DMSO concentration in each reaction was 5% (v/v). Membranes were incubated for 18 hours at room temperature before being terminated by rapid filtration through 96-well GF/C UniFilter plates pre-soaked in 0.3% (w/v) PEI, followed by washing with PBS with 0.15% (w/v) CHAPS. Plates were dried, 50 μl Ultima Gold-F added per well and bound ligand measured using a Packard Microbeta counter. Data were analyzed using a global fitted one-site binding hyperbola in GraphPad Prism v5 to generate Kd. For solubilized whole cell ligand binding experiments, HEK293T cells transiently expressing eGFP-tagged wild-type CRF1R or single point mutants were treated as described above for thermostability experiments, without the 30 minute heating step. Specific binding was determined by subtracting untransfected controls. Expression of each construct was quantified by eGFP fluorescence of whole cells measured at Ex/Em of 488/520 nm.

CRF1R F203A(3.44) = target: T2, CRF1R F203A(3.44); assay: as above; conditions: Phe203^3.44Ala
Procedure: as §1, §2

CRF1R Q355A(7.49) = target: T3, CRF1R Q355A(7.49); assay: as above; conditions: Gln355^7.49 substituted with alanine
Procedure: as §1, §2

CRF1R N283A(5.50) = target: T4, CRF1R N283A(5.50); assay: as above; conditions: Asn283^5.50Ala
Procedure: as §1, §2

[1] = Thermostability measurement of CRF1R constructs solubilised in DDM, read out by [3H]CP-376395 binding; format: physicochemical, human; conditions: measured using [3H]CP-376395 binding, mean of four independent experiments, standard deviation in parentheses
Procedure: as §1

Molecule	antagonist binding after mutation to alanine (CRF1R L280A(5.47))	antagonist binding after mutation to alanine (CRF1R F203A(3.44))	CP-376395 binding after substitution with alanine (CRF1R Q355A(7.49))	ligand binding after mutation to alanine (CRF1R N283A(5.50))	Mean Tm [1]
CCC(CC)Nc1cc(C)nc(Oc2c(C)cc(C)cc2C)c1C [CP-376395]	negligible or no binding detected	negligible or no binding detected	did not affect	complete loss of ligand binding; also recorded: negligible or no binding detected	
B1					44.7 (2.2) ° C.
B2					18.4 (2.0) ° C.
